From patent US20220289715A1, “PESTICIDALLY ACTIVE PYRAZINE-AMIDE COMPOUNDS” (priority 2019, published 2022)

Key:
Assay type in all cases: in vivo
[1] = tested on: Plutella xylostella (Diamondback Moth); assay: Example B9: Plutella xylostella, artificial diet, 96-well; conditions: 216 h, application rate of 500 ppm, eggs/L1 larvae, 9 days after infestation
Experimental: Example B9: Plutella xylostella (Diamondback Moth)
96-well microtiter plates containing artificial diet were treated with aqueous test solutions, prepared from 10,000 ppm DMSO stock solutions, by a liquid handling robot. After drying, eggs (˜30 per well) were infested onto a netted lid which was suspended above the diet. The eggs hatch and L1 larvae move down to the diet. The samples were assessed for mortality 9 days after infestation.
The following compounds gave an effect of at least 80% mortality at an application rate of 500 ppm: […]

[2] = tested on: Spodoptera littoralis (Egyptian Cotton Leaf Worm); assay: Example B6: Spodoptera littoralis, spray on cotton leaf discs; conditions: foliar, 72 h, application rate of 200 ppm, L1 larvae, 3 days after infestation, read-out: control in at least one of the three categories (mortality, anti-feedant effect, or growth inhibition)
Experimental: Example B6: Spodoptera littoralis (Egyptian Cotton Leaf Worm)
Cotton leaf discs were placed onto agar in 24-well microtiter plates and sprayed with aqueous test solutions prepared from 10,000 ppm DMSO stock solutions. After drying the leaf discs were infested with five L1 larvae. The samples were assessed for mortality, anti-feeding effect, and growth inhibition in comparison to untreated samples 3 days after infestation. Control of Spodoptera littoralis by a test sample is given when at least one of the categories mortality, anti-feedant effect, and growth inhibition is higher than the untreated sample.

[3] = tested on: Chilo suppressalis (Striped Rice Stemborer); assay: Example B3: Chilo suppressalis, artificial diet; conditions: 144 h, application rate of 200 ppm, L2 larvae, 6 days after infestation, read-out: control in at least one of the three categories (mortality, anti-feedant effect, or growth inhibition)
Experimental: Example B3: Chilo suppressalis (Striped Rice Stemborer)
24-well microtiter plates with artificial diet were treated with aqueous test solutions prepared from 10,000 ppm DMSO stock solutions by pipetting. After drying, the plates were infested with L2 larvae (6-8 per well). The samples were assessed for mortality, anti-feeding effect, and growth inhibition in comparison to untreated samples 6 days after infestation. Control of Chilo suppressalis by a test sample is given when at least one of the categories mortality, anti-feedant effect, and growth inhibition is higher than the untreated sample.

[4] = tested on: Plutella xylostella (Diamond Back Moth); assay: Example B4: Plutella xylostella, artificial diet, 24-well; conditions: 192 h, application rate of 200 ppm, eggs, 8 days after infestation, read-out: control in at least one of the two categories (mortality or growth inhibition)
Experimental: Example B4: Plutella xylostella (Diamond Back Moth)
24-well microtiter plates with artificial diet were treated with aqueous test solutions prepared from 10,000 ppm DMSO stock solutions by pipetting. After drying, Plutella eggs were pipetted through a plastic stencil onto a gel blotting paper and the plate was closed with it. The samples were assessed for mortality and growth inhibition in comparison to untreated samples 8 days after infestation.
(§1) The following compounds gave an effect of at least 80% control in at least one of the two categories (mortality or growth inhibition) at an application rate of 200 ppm: […]

[5] = tested on: Diabrotica balteata (Corn Root Worm); assay: Example B1: Diabrotica balteata, spray on maize sprouts; conditions: 96 h, application rate of 200 ppm, L2 larvae, 4 days after infestation, read-out: control in at least one of the two categories (mortality or growth inhibition)
Experimental: Example B1: Diabrotica balteata (Corn Root Worm)
Maize sprouts placed onto an agar layer in 24-well microtiter plates were treated with aqueous test solutions prepared from 10,000 ppm DMSO stock solutions by spraying. After drying, the plates were infested with L2 larvae (6 to 10 per well). The samples were assessed for mortality and growth inhibition in comparison to untreated samples 4 days after infestation.
as §1

COc1cc(C(=O)NC(C)c2nccnc2-n2nccn2)cc(Cl)n1 (stereo not drawn) [Compound P32, 2-chloro-6-methoxy-N-[1-[3-(triazol-2-yl)pyrazin-2-yl]ethyl]pyridine-4-carboxamide]
≥ 80%: mortality at 500 ppm [1]

Cc1cn(-c2nccnc2C(C)NC(=O)c2cc(C(F)(F)F)cc(C(F)(F)F)c2)nn1 (stereo not drawn) [Compound P41, N-[1-[3-(4-methyltriazol-1-yl)pyrazin-2-yl]ethyl]-3,5-bis(trifluoromethyl)benzamide]
≥ 80%: percent control (mortality, anti-feedant effect or growth inhibition) at 200 ppm [2] | percent control (mortality, anti-feedant effect or growth inhibition) at 200 ppm [3] | mortality at 500 ppm [1] | percent control (mortality or growth inhibition) at 200 ppm [4]

CC(NC(=O)c1cc(C(F)(F)F)cc(C(F)(F)F)c1)c1nccnc1-n1cccn1 (stereo not drawn) [Compound P45]
≥ 80%: percent control (mortality or growth inhibition) at 200 ppm [5]

CC(NC(=O)c1cc(C(F)(F)F)cc(C(F)(F)F)c1)c1nccnc1-n1ccnn1 (stereo not drawn) [Compound P44, N-[1-[3-(triazol-1-yl)pyrazin-2-yl]ethyl]-3,5-bis(trifluoromethyl)benzamide]
≥ 80%: percent control (mortality, anti-feedant effect or growth inhibition) at 200 ppm [2] | percent control (mortality, anti-feedant effect or growth inhibition) at 200 ppm [3] | percent control (mortality or growth inhibition) at 200 ppm [4] | percent control (mortality or growth inhibition) at 200 ppm [5]

Cc1cc(C)cc(C(=O)NC(C)c2nccnc2-n2nccn2)c1 (stereo not drawn) [Compound P24, 3,5-dimethyl-N-[1-[3-(triazol-2-yl)pyrazin-2-yl]ethyl]benzamide]
≥ 80%: mortality at 500 ppm [1]

CC(NC(=O)c1cc(C(F)(F)F)cc(C(F)(F)F)c1)c1nccnc1-n1ncc(I)n1 (stereo not drawn) [Compound P53, N-[1-[3-(4-iodotriazol-2-yl)pyrazin-2-yl]ethyl]-3,5-bis(trifluoromethyl)benzamide]
≥ 80%: percent control (mortality, anti-feedant effect or growth inhibition) at 200 ppm [2] | percent control (mortality, anti-feedant effect or growth inhibition) at 200 ppm [3] | percent control (mortality or growth inhibition) at 200 ppm [4] | percent control (mortality or growth inhibition) at 200 ppm [5]

CC(NC(=O)c1cc(Cl)cc(OC(F)(F)F)c1)c1nccnc1-n1nccn1 (stereo not drawn) [Compound P33, 3-chloro-N-[1-[3-(triazol-2-yl)pyrazin-2-yl]ethyl]-5-(trifluoromethoxy)benzamide]
≥ 80%: percent control (mortality, anti-feedant effect or growth inhibition) at 200 ppm [2] | percent control (mortality, anti-feedant effect or growth inhibition) at 200 ppm [3] | mortality at 500 ppm [1] | percent control (mortality or growth inhibition) at 200 ppm [4] | percent control (mortality or growth inhibition) at 200 ppm [5]

Cc1cnc(C(C)NC(=O)c2cc(C(F)(F)F)cc(C(F)(F)F)c2)c(-n2nccn2)n1 (stereo not drawn) [Compound P18, N-[1-[5-methyl-3-(triazol-2-yl)pyrazin-2-yl]ethyl]-3,5-bis(trifluoromethyl)benzamide]
≥ 80%: percent control (mortality, anti-feedant effect or growth inhibition) at 200 ppm [3] | percent control (mortality or growth inhibition) at 200 ppm [4]

Cc1cnn(-c2nccnc2C(C)NC(=O)c2cc(C(F)(F)F)cc(C(F)(F)F)c2)n1 (stereo not drawn) [Compound P1, N-[1-[3-(4-methyltriazol-2-yl)pyrazin-2-yl]ethyl]-3,5-bis(trifluoromethyl)benzamide]
≥ 80%: percent control (mortality, anti-feedant effect or growth inhibition) at 200 ppm [3] | mortality at 500 ppm [1] | percent control (mortality or growth inhibition) at 200 ppm [4]

CC(NC(=O)c1cc(OCC(F)(F)F)cc(C(F)(F)F)c1)c1nccnc1-n1nccn1 (stereo not drawn) [Compound P8, N-[1-[3-(triazol-2-yl)pyrazin-2-yl]ethyl]-3-(2,2,2-trifluoroethoxy)-5-(trifluoromethyl)benzamide]
≥ 80%: percent control (mortality, anti-feedant effect or growth inhibition) at 200 ppm [2] | percent control (mortality, anti-feedant effect or growth inhibition) at 200 ppm [3] | percent control (mortality or growth inhibition) at 200 ppm [4] | percent control (mortality or growth inhibition) at 200 ppm [5]

CO/N=C(\C)c1cnn(-c2nccnc2C(C)NC(=O)c2cc(C(F)(F)F)cc(C(F)(F)F)c2)n1 (stereo not drawn) [Compound P54, N-[1-[3-[4-[(E)-N-methoxy-C-methyl-carbonimidoyl]triazol-2-yl]pyrazin-2-yl]ethyl]-3,5-bis(trifluoromethyl)benzamide]
≥ 80%: percent control (mortality, anti-feedant effect or growth inhibition) at 200 ppm [2] | percent control (mortality or growth inhibition) at 200 ppm [4] | percent control (mortality or growth inhibition) at 200 ppm [5]

CC(=O)c1cn(-c2nccnc2C(C)NC(=O)c2cc(C(F)(F)F)cc(C(F)(F)F)c2)nn1 (stereo not drawn) [Compound P55, N-[1-[3-(4-acetyltriazol-1-yl)pyrazin-2-yl]ethyl]3,5-bis(trifluoromethyl)benzamide]
≥ 80%: percent control (mortality, anti-feedant effect or growth inhibition) at 200 ppm [3] | percent control (mortality or growth inhibition) at 200 ppm [4]

CC(c1nccnc1-n1nccn1)N(CC1CC1)C(=O)c1cc(C(F)(F)F)cc(C(F)(F)F)c1 (stereo not drawn) [Compound P50, N-(cyclopropylmethyl)-N-[1-[3-(triazol-2-yl)pyrazin-2-yl]ethyl]-3,5-bis(trifluoromethyl)benzamide]
≥ 80%: percent control (mortality, anti-feedant effect or growth inhibition) at 200 ppm [2] | mortality at 500 ppm [1] | percent control (mortality or growth inhibition) at 200 ppm [4] | percent control (mortality or growth inhibition) at 200 ppm [5]

CC(NC(=O)c1cc(C(F)(F)F)cc(C(F)(F)F)c1)c1nccnc1-n1cc(C2CC2)nn1 (stereo not drawn) [Compound P42, N-[1-[3-(4-cyclopropyltriazol-1-yl)pyrazin-2-yl]ethyl]-3,5-bis(trifluoromethyl)benzamide]
≥ 80%: percent control (mortality, anti-feedant effect or growth inhibition) at 200 ppm [2] | percent control (mortality, anti-feedant effect or growth inhibition) at 200 ppm [3] | mortality at 500 ppm [1] | percent control (mortality or growth inhibition) at 200 ppm [4]

CC(NC(=O)c1cc(F)cc(Cl)c1)c1nccnc1-n1nccn1 (stereo not drawn) [Compound P25, 3-chloro-5-fluoro-N-[1-[3-(triazol-2-yl)pyrazin-2-yl]ethyl]benzamide]
≥ 80%: mortality at 500 ppm [1] | percent control (mortality or growth inhibition) at 200 ppm [4] | percent control (mortality or growth inhibition) at 200 ppm [5]

CC(NC(=O)c1cc(C(F)(F)F)cc(C(F)(F)F)c1)c1nccnc1-n1cc(C#N)cn1 (stereo not drawn) [Compound P47, N-[1-[3-(4-cyanopyrazol-1-yl)pyrazin-2-yl]ethyl]-3,5-bis(trifluoromethyl)benzamide]
≥ 80%: percent control (mortality, anti-feedant effect or growth inhibition) at 200 ppm [2] | percent control (mortality, anti-feedant effect or growth inhibition) at 200 ppm [3] | percent control (mortality or growth inhibition) at 200 ppm [4] | percent control (mortality or growth inhibition) at 200 ppm [5]

CC(=O)c1cnn(-c2nccnc2C(C)NC(=O)c2cc(C(F)(F)F)cc(C(F)(F)F)c2)n1 (stereo not drawn) [Compound P57, N-[1-[3-(4-acetyltriazol-2-yl)pyrazin-2-yl]ethyl]-3,5-bis(trifluoromethyl)benzamide]
≥ 80%: percent control (mortality, anti-feedant effect or growth inhibition) at 200 ppm [3] | percent control (mortality or growth inhibition) at 200 ppm [4]

CC(c1nccnc1-n1cncn1)N(CC1CC1)C(=O)c1cc(C(F)(F)F)cc(C(F)(F)F)c1 (stereo not drawn) [Compound P48, N-(cyclopropylmethyl)-N-[1-[3-(1,2,4-triazol-1-yl)pyrazin-2-yl]ethyl]-3,5-bis(trifluoromethyl)benzamide]
≥ 80%: percent control (mortality, anti-feedant effect or growth inhibition) at 200 ppm [2] | mortality at 500 ppm [1] | percent control (mortality or growth inhibition) at 200 ppm [4] | percent control (mortality or growth inhibition) at 200 ppm [5]

CC(NC(=O)c1cc(C(F)(F)F)cc(C(F)(F)F)c1)c1nccnc1-n1nnc2ccccc21 (stereo not drawn) [Compound P51, N-[1-[3-(benzotriazol-1-yl)pyrazin-2-yl]ethyl]-3,5-bis(trifluoromethyl)benzamide]
≥ 80%: mortality at 500 ppm [1] | percent control (mortality or growth inhibition) at 200 ppm [4]
